Assay results taken from article PMC10636063, “Progesterone activation of β1-containing BK channels involves two binding sites” (Nature Communications, 2023).
Where “and” joins values, the source holds several entries; their conditions need not be identical. Identical values can stand only once.

Tests used:
[1] = biological target: T1, cbv1+β1Y32V (Rattus norvegicus, UniProt P97678, Y32V); assay: Channel activity (NPo) in POPE/POPS bilayers, cbv1+β1Y32V; assay type: biochemical; conditions: for normalized NPo, time course Fig 2E: Y32V PROG
T1 construct: made in house; host or cells: CHO cells, transient transfection; sucrose-gradient membrane preparation
Source text: (§1) BK channel-forming slo1 cDNA (cbv1 isoform; AY330293) was cloned from rat cerebral artery SM cells, and inserted into pcDNA3.1 vector as described. BK β1 cDNA (KCNMB1 product; NP_011452; FJ154955) were isolated from rat cerebral artery SM cells and cloned as described. β4 cDNA (KCNMB4; NP_055320; AY028605) were generously provided by Dr. Ligia Toro. CHO cells were transiently transfected with cbv1 ± β1-, or β4-carrying pcDNA3.1 using X-tremeGENE HP (Sigma-Aldrich). Mutations to β1/4 cDNAs were conducted by Genscript, with sequences being confirmed to be >99% identical to KCNMB1 product; NP_011452 or β4 KCNMB4; NP_055320; respectively. β1/4 and mutant constructs were flag-tagged (DYKDDDDK-tag) by Genscript services for subsequent immunoprecipitation and use in microscale thermophoresis studies.
Proteins for electrophysiological recordings in artificial lipid bilayers remained untagged. Cells were transiently transfected as described above, pelleted and re-suspended on ice in 10 ml of buffer solution of the following composition (mM): 30 KCl, 2 MgCl2, 10 HEPES, 5 EGTA; pH 7.2. A membrane preparation was obtained using a sucrose gradient as described. Aliquots were stored at −80 °C. BK channel-mediated ionic current was recorded in planar lipid bilayers consisting of a POPE:POPS 3:1 (w/w) mixture. Lipid mixtures were dried under N2 and re-suspended in 25 mg/ml of n-decane BK currents following incorporation into horizontal bilayers at 300/30 mM cis/trans gradient as detailed elsewhere. Ion currents were obtained during a 10-min gap-free recording at 0 mV in the presence of 0.01, 10 μM PROG, 10 μM PROG-oxime, or vehicle control (dimethyl sulfoxide; DMSO). Currents were obtained in gap-free mode using a Warner BC-525D amplifier, low pass-filtered at 1 kHz and sampled at 5 kHz with Digidata 1550B/pCLAMP 11 (Molecular Devices). For comparison with previous data from us[16],[17],[45]–[47], studies were conducted at 20–22 °C. PROG stock, oxime stock or vehicle control (DMSO) was added to the bilayer cis chamber to reach final concentrations (0.01–10 µM), with all compounds being dissolved with the same concentration of DMSO (0.1%); n = 5–10 for each group.
Patch-clamp and bilayer data were analyzed using Clampfit 10.7 software (Molecular Devices). NPo was used as an index of channel steady-state activity where N = number of channels in the patch (defined as a maximal number of opening levels at Po≤1) and Po=single channel open probability. Drug-induced NPo changes were determined by comparing baseline NPo (i.e., NPo with the patch/cell perfused with bath solution) to the NPo from the same patch/cell exposed to the agent under study (DMSO/PROG/oxime) dissolved in bath solution. NPo and mean open time values were automatically calculated using Clampfit 10.7, the latter using a 50% threshold detection event.

[2] = biological target: T2, β1Y42V (Rattus norvegicus, UniProt P97678, Y42V); assay: Thermal unfolding (MST) of β1Y42V; assay type: binding
T2 construct: FLAG (DYKDDDDK); made in house; host or cells: CHO cells, transient transfection, anti-flag immunoprecipitation
Source text: as §1
Wt β1, wt β4 and mutant constructs were purified by immunoprecipitation using Dynabeads Protein G Kit (10007D by Invitrogen) and following the manufacturer’s instructions. […] The unfolding profile of a protein is a plot of its fluorescence signal against temperature. […] During the heating process, fluorescence is recorded at 330 and 350 nm. The resulting fluorescence ratio change is then analyzed for onset and inflection points. The temperature of onset and inflection is determined using built-in analysis function in Nanotemper PR.therm-control software. […]

[3] = system: de-endothelialized MCA segments of KCNMB1-/- mice permeabilized with β1 constructs; assay: Cerebral artery diameter in vitro, KCNMB1-/- MCA permeabilized with β1 constructs; parameters: species or system mouse; conditions: 10 µM; W87F, Y32V or W163I constructs
Source text: Eight-12 week-old C57BL/6J and KCNMB1^−/− on C57BL/6 background mice of both sexes were deeply anesthetized with isoflurane via inhalation in a tightly sealed jar. […] For de-endothelialized records, the endothelium was removed by passing an air bubble into the vessel lumen for 90 s[30]. This method has been consistently used by our group and validated using endothelium-dependent versus endothelium-independent vasodilators[16],[26]. Arteries were cannulated as previously described by our group[26],[40]. […] PSS was continuously bubbled with an O2/CO2/N2 (21/5/74%) gas mixture and maintained at 35–37 °C. The artery external wall diameter was measured using the automatic edge-detection function of lonWizard software (lonOptix) via Sanyo VCB-3512T camera (Sanyo Electric Co.). Arteries were first incubated at an intravascular pressure of 10 mm Hg for 10 min. Then intravascular pressure was increased to 60 mmHg and held steady throughout the experiment to induce myogenic tone development and maintenance[19],[30],[51]. […] To determine arterial viability, arterial contractility was probed with a high KCl solution at the end of each experiment. […] Like PSS, the high-KCl solution was continuously bubbled with O2/CO2/N2 (21/5/74%) gas mixture and maintained at 35–37 °C. […]

T1 sequence (P97678 whole entry Y32V): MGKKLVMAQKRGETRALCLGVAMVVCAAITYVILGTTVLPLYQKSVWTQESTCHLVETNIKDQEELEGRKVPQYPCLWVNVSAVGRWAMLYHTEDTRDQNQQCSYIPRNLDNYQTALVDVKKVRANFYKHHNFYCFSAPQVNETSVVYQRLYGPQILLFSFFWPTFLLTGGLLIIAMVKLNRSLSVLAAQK
T1 sequence (Q62976 1-1148 isoform Q62976-2 partner): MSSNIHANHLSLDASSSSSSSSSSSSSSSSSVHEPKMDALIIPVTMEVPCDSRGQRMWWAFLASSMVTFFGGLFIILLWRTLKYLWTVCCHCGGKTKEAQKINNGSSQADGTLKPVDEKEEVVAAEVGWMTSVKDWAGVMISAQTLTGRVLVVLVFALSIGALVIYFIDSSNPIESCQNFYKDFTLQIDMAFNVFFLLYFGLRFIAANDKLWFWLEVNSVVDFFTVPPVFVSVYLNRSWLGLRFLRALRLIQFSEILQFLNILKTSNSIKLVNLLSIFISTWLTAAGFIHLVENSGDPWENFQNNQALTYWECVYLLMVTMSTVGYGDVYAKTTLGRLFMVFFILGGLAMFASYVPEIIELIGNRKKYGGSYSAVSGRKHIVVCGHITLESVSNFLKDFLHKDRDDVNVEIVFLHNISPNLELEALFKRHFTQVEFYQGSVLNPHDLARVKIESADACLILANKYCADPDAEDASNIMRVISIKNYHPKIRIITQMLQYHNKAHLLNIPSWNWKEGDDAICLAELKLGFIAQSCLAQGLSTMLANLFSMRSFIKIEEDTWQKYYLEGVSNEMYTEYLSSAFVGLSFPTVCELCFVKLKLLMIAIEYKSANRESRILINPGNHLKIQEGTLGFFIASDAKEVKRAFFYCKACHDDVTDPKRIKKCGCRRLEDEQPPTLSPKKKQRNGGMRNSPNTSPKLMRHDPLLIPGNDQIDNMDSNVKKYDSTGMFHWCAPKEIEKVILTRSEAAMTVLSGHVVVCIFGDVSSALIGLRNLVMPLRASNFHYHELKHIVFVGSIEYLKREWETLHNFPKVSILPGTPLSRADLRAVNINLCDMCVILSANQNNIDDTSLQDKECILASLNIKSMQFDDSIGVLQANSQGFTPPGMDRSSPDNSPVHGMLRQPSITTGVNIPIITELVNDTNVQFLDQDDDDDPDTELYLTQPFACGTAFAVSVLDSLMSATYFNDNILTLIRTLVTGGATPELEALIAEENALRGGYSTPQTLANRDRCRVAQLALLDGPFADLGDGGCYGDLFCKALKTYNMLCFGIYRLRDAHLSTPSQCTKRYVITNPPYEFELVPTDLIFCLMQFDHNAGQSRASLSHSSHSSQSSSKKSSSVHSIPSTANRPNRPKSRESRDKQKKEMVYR
T2 sequence (P97678 whole entry Y42V): as the sequence (P97678 whole entry Y32V) above, with V32Y, Y42V counted along it

## CC(=O)[C@H]1CC[C@H]2[C@@H]3CCC4=CC(=O)CC[C@]4(C)[C@H]3CC[C@]12C [PROG, Progesterone]
[1]; 10 µM, vs DMSO
  action on channel activity (NPo): effectively abolished PROG action
[1]; time 1 min (normalisation reference)
  normalized NPo, time course Fig 2E: 1
[1]; time 3 min
  normalized NPo, time course Fig 2E: 1.125 and 0.8919 and 0.9083 and 0.945 and 0.929
[1]; time 5 min
  normalized NPo, time course Fig 2E: 0.9853 and 0.9339 and 0.8202 and 0.8981 and 0.6799
[1]; time 6 min
  normalized NPo, time course Fig 2E: 1.106 and 1.228 and 1.117 and 1.276 and 0.8487
[1]; time 7 min
  normalized NPo, time course Fig 2E: 1.144 and 0.9028 and 1.206 and 0.9453
[1]; time 8 min
  normalized NPo, time course Fig 2E: 0.6757 and 1.202 and 0.918 and 1.1397
[1]; time 9 min
  normalized NPo, time course Fig 2E: 0.5676 and 0.9266 and 0.822 and 1.088
[1]; time 10 min
  normalized NPo, time course Fig 2E: 0.7195 and 0.8661 and 0.9555 and 1.102
[2]
  binding: still bind PROG
[3]
  vasoactive response of MCA segments: failed to dilate MCA segments
